According to patent publication US20090239841A1, “Diaryl Ureas as CB1 Antagonists” (priority 2004, published 2009):
One block for each compound: values may come before it.

Biological target: T1, hCB1 (Homo sapiens, UniProt P21554)
T1 construct: made in house; host or cells: Sf9 insect cells (baculovirus), P2 membranes
Experiment: Agonist-induced GTP binding (GTPγ35S) assay at CB1, Example 8
Type: biochemical
Conditions: IC50 at CB1, determined as described in Example 8; read-out: IC50
Outline: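 Antagonism read as inhibition of 1 nM CP55,940-stimulated GTPγ35S ([…]) binding, compounds at 10^−10 to 10^−5 M. Baculovirus-infected Sf9 membranes bearing hCB1 plus G-protein subunits, 60 min room-temperature incubation with 5 μM GDP. Filtration and scintillation counting; data as percent over basal.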

T1 sequence (P21554 whole entry): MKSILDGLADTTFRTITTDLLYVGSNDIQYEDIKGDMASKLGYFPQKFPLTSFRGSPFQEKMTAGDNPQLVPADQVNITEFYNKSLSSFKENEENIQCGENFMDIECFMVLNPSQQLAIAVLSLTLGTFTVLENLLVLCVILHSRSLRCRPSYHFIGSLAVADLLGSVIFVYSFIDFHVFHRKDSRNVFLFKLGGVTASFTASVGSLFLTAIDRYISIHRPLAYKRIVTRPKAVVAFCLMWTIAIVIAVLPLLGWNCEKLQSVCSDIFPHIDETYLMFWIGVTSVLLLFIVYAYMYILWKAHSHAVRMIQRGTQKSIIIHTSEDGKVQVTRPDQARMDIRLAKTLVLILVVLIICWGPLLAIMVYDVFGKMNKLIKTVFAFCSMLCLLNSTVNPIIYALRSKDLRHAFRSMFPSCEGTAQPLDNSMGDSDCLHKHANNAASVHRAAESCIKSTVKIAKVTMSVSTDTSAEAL

SMILES: CCOC(=O)c1cccc(NC(=O)Nc2ccc(OC(C)C)cc2)c1 [Compound 674, ethyl 3-({[(4-isopropoxyphenyl)amino]carbonyl}amino)benzoate]
- IC50: < 2 µM

SMILES: CCOC(=O)c1ccc(NC(=O)Nc2ccc(OC(C)C)cc2)cc1 [Compound 675, ethyl 4-({[(4-isopropoxyphenyl)amino]carbonyl}amino)benzoate]
- IC50: < 2 µM

SMILES: COC(=O)c1cccc(NC(=O)Nc2cccc(OC(F)F)c2)c1 [Compound 676, methyl 3-[({[3-(difluoromethoxy)phenyl]amino}carbonyl)amino]benzoate]
- IC50: < 2 µM

SMILES: COC(=O)c1ccc(NC(=O)Nc2cccc(OC(F)F)c2)cc1 [Compound 677, methyl 4-[({[3-(difluoromethoxy)phenyl]amino}carbonyl)amino]benzoate]
- IC50: < 2 µM

SMILES: CCOC(=O)c1ccc(NC(=O)Nc2cccc(OC(F)F)c2)cc1 [Compound 678, ethyl 4-[({[3-(difluoromethoxy)phenyl]amino}carbonyl)amino]benzoate]
- IC50: < 2 µM

SMILES: COC(=O)c1cccc(NC(=O)Nc2ccc(OC(F)F)cc2)c1 [Compound 679, methyl 3-[({[4-(difluoromethoxy)phenyl]amino}carbonyl)amino]benzoate]
- IC50: < 2 µM

SMILES: COCc1ccc(NC(=O)Nc2ccc(C)c(C)c2)cc1 [Compound 684, 1-(3,4-dimethylphenyl)-3-[4-(methoxymethyl)phenyl]urea]
- IC50: < 2 µM

SMILES: COCc1ccc(NC(=O)Nc2ccc(C)c(F)c2)cc1 [Compound 685, 1-(3-fluoro-4-methylphenyl)-3-[4-(methoxymethyl)phenyl]urea]
- IC50: < 2 µM

SMILES: CCCOc1ccc(NC(=O)Nc2ccc(F)c(F)c2)cc1 [Compound 686, 1-(3,4-difluorophenyl)-3-(4-propoxyphenyl)urea]
- IC50: < 2 µM

SMILES: Cc1ccc(F)cc1NC(=O)Nc1cccc(OC(F)F)c1 [Compound 700, 1-[3-(difluoromethoxy)phenyl]-3-(5-fluoro-2-methylphenyl)urea]
- IC50: < 2 µM

SMILES: COc1ccc(NC(=O)Nc2cc(F)cc(F)c2)cc1 [Compound 701, 1-(3,5-difluorophenyl)-3-(4-methoxyphenyl)urea]
- IC50: < 2 µM

SMILES: CCOc1cccc(NC(=O)Nc2cc(F)cc(F)c2)c1 [Compound 702, 1-(3,5-difluorophenyl)-3-(3-ethoxyphenyl)urea]
- IC50: < 2 µM

SMILES: CCOc1cccc(NC(=O)Nc2ccc(C)cc2C)c1 [Compound 703, 1-(2,4-dimethylphenyl)-3-(3-ethoxyphenyl)urea]
- IC50: < 2 µM

SMILES: CCOc1ccc(NC(=O)Nc2cc(C)cc(C)c2)cc1 [Compound 704, 1-(3,5-dimethylphenyl)-3-(4-ethoxyphenyl)urea]
- IC50: < 2 µM

SMILES: COCc1ccc(NC(=O)Nc2cc(F)cc(F)c2)cc1 [Compound 705, 1-(3,5-difluorophenyl)-3-[4-(methoxymethyl)phenyl]urea]
- IC50: < 2 µM

SMILES: CCCOc1ccc(NC(=O)Nc2cc(C)cc(C)c2)cc1 [Compound 706, 1-(3,5-dimethylphenyl)-3-(4-propoxyphenyl)urea]
- IC50: < 2 µM

SMILES: CC(C)Oc1ccc(NC(=O)Nc2cc(F)cc(F)c2)cc1 [Compound 709, 1-(3,5-difluorophenyl)-3-(4-isopropoxyphenyl)urea]
- IC50: < 2 µM

SMILES: Cc1cc(C)cc(NC(=O)Nc2cccc(OC(F)F)c2)c1 [Compound 710, 1-[3-(difluoromethoxy)phenyl]-3-(3,5-dimethylphenyl)urea]
- IC50: < 2 µM

The remaining lines, values ahead:

- IC50: < 2 µM
SMILES: CCOC(=O)c1ccc(NC(=O)Nc2cccc(OC(C)C)c2)cc1 [Compound 673, ethyl 4-({[(3-isopropoxyphenyl)amino]carbonyl}amino)benzoate]

- IC50: < 2 µM
SMILES: CCOc1cccc(NC(=O)Nc2ccc(C)c(C)c2)c1 [Compound 680, 1-(3,4-dimethylphenyl)-3-(3-ethoxyphenyl)urea]

- IC50: < 2 µM
SMILES: CCOc1cccc(NC(=O)Nc2ccc(C)c(F)c2)c1 [Compound 681, 1-(3-ethoxyphenyl)-3-(3-fluoro-4-methylphenyl)urea]

- IC50: < 2 µM
SMILES: CCOc1cccc(NC(=O)Nc2ccc(F)c(C)c2)c1 [Compound 682, 1-(3-ethoxyphenyl)-3-(4-fluoro-3-methylphenyl)urea]

- IC50: < 2 µM
SMILES: CCOc1cccc(NC(=O)Nc2ccc(F)c(F)c2)c1 [Compound 683, 1-(3,4-difluorophenyl)-3-(3-ethoxyphenyl)urea]

- IC50: < 2 µM
SMILES: Cc1ccc(NC(=O)Nc2cccc(OC(C)C)c2)cc1C [Compound 687, 1-(3,4-dimethylphenyl)-3-(3-isopropoxyphenyl)urea]

- IC50: < 2 µM
SMILES: Cc1ccc(NC(=O)Nc2cccc(OC(C)C)c2)cc1F [Compound 688, 1-(3-fluoro-4-methylphenyl)-3-(3-isopropoxyphenyl)urea]

- IC50: < 2 µM
SMILES: Cc1cc(NC(=O)Nc2cccc(OC(C)C)c2)ccc1F [Compound 689, 1-(4-fluoro-3-methylphenyl)-3-(3-isopropoxyphenyl)urea]

- IC50: < 2 µM
SMILES: CC(C)Oc1cccc(NC(=O)Nc2ccc(F)c(F)c2)c1 [Compound 690, 1-(3,4-difluorophenyl)-3-(3-isopropoxyphenyl)urea]

- IC50: < 2 µM
SMILES: Cc1ccc(NC(=O)Nc2ccc(OC(C)C)cc2)cc1C [Compound 691, 1-(3,4-dimethylphenyl)-3-(4-isopropoxyphenyl)urea]

- IC50: < 2 µM
SMILES: Cc1ccc(NC(=O)Nc2ccc(OC(C)C)cc2)cc1F [Compound 692, 1-(3-fluoro-4-methylphenyl)-3-(4-isopropoxyphenyl)urea]

- IC50: < 2 µM
SMILES: Cc1cc(NC(=O)Nc2ccc(OC(C)C)cc2)ccc1F [Compound 693, 1-(4-fluoro-3-methylphenyl)-3-(4-isopropoxyphenyl)urea]

- IC50: < 2 µM
SMILES: CC(C)Oc1ccc(NC(=O)Nc2ccc(F)c(F)c2)cc1 [Compound 694, 1-(3,4-difluorophenyl)-3-(4-isopropoxyphenyl)urea]

- IC50: < 2 µM
SMILES: Cc1ccc(NC(=O)Nc2cccc(OC(F)F)c2)cc1C [Compound 695, 1-[3-(difluoromethoxy)phenyl]-3-(3,4-dimethylphenyl)urea]

- IC50: < 2 µM
SMILES: Cc1ccc(NC(=O)Nc2cccc(OC(F)F)c2)cc1F [Compound 696, 1-[3-(difluoromethoxy)phenyl]-3-(3-fluoro-4-methylphenyl)urea]

- IC50: < 2 µM
SMILES: Cc1cc(NC(=O)Nc2cccc(OC(F)F)c2)ccc1F [Compound 697, 1-[3-(difluoromethoxy)phenyl]-3-(4-fluoro-3-methylphenyl)urea]

- IC50: < 2 µM
SMILES: Cc1ccc(F)cc1NC(=O)Nc1ccc(OC(C)C)cc1 [Compound 698, 1-(5-fluoro-2-methylphenyl)-3-(4-isopropoxyphenyl)urea]

- IC50: < 2 µM
SMILES: Cc1ccc(F)c(NC(=O)Nc2cccc(OC(F)F)c2)c1 [Compound 699, 1-[3-(difluoromethoxy)phenyl]-3-(2-fluoro-5-methylphenyl)urea]

- IC50: < 2 µM
SMILES: Cc1cc(C)cc(NC(=O)Nc2cccc(OC(C)C)c2)c1 [Compound 707, 1-(3,5-dimethylphenyl)-3-(3-isopropoxyphenyl)urea]

- IC50: < 2 µM
SMILES: CC(C)Oc1cccc(NC(=O)Nc2cc(F)cc(F)c2)c1 [Compound 708, 1-(3,5-difluorophenyl)-3-(3-isopropoxyphenyl)urea]

- IC50: < 2 µM
SMILES: Cc1ccc(NC(=O)Nc2cccc(OC(F)F)c2)c(C)c1 [Compound 711, 1-[3-(difluoromethoxy)phenyl]-3-(2,4-dimethylphenyl)urea]
